Where two headings read alike, the source gives them in different places.
What was measured:
[1] = Metabolic stability assay in human liver microsomes (HLM); type: in vitro ADME; details: 1 μM
Protocol: (§1) Protocol 1: Studies were carried out in human and rat liver microsomes (“HLM” and “RLM,” respectively). Human and rat liver microsomes were purchased from BD Gentest. DMSO stocks were prepared for the test compounds. Aliquots of the DMSO solutions were diluted to 0.5 mM by acetonitrile, then further diluted by liver microsomes/buffer to 1.5 μM. 30 μL of 1.5 μM solutions were mixed with 15 μL of 6 mM NADPH, which had been pre-warmed to 37° C., at a final test compound concentration of 1 μM. The plates were kept in a 37° C. water bath for the duration of the experiment. At each time point (0, 5, 15, 30, 45 minutes), 135 μL of acetonitrile was added into corresponding wells. After the final time point was sampled, the plates were shaken at a vibrator (IKA, MTS 2/4) for 10 min (600 rpm/min) and then centrifuged at 5594 g for 15 min (Thermo Multifuge×3R). Aliquots of the supernatant were removed, diluted 1:1 into distilled water, and analyzed by LC-MS/MS. The peak area response ratio to internal standard (PARR) of the compounds at 5, 15, 30, 45 minutes was compared to the PARR at time 0 to determine the percent of test compound remaining at each time point. Half-lives were calculated using Excel software, fitting to a single-phase exponential decay equation.
(§2) Protocol 2: Studies were carried out in human and rat liver microsomes. Buffer solutions were prepared as follows: Buffer A: 1.0 L of 0.1 M monobasic Potassium Phosphate buffer containing 1.0 mM EDTA; Buffer B: 1.0 L of 0.1 M Dibasic Potassium Phosphate buffer containing 1.0 mM EDTA; Buffer C: 0.1 M Potassium Phosphate buffer, 1.0 mM EDTA, pH 7.4 by titrating 700 mL of buffer B with buffer A while monitoring with a pH meter.
(§3) Reference compound (Ketanserin) and test compound spiking solutions were prepared as follows: 500 μM spiking solution: add 10 μL of 10 mM DMSO stock solution into 190 μL ACN; 1.5 μM spiking solution in microsomes (0.75 mg/mL): add 1.5 μL of 500 μM spiking solution and 18.75 μL of 20 mg/mL liver microsomes into 479.75 μL of Buffer C.
(§4) NADPH stock solution (6 mM) was prepared by dissolving NADPH into buffer C.
(§5) Assay procedure: 30 μL of 1.5 μM spiking solution containing 0.75 mg/mL microsomes solution was dispensed to the wells designated for […]. The plate was pre-incubated at 37° C. for 10 minutes. 15 μL of NADPH stock solution (6 mM) was added to the wells designated as Time 45, and the timer was started. At 30 mM, 15 mM, and 5 mM, 15 μL NADPH stock solution (6 mM) was added to the wells, respectively. At the end of incubation (0 mM), 135 μL of ACN containing IS was added to all the wells. Then 15 μL of NADPH stock solution (6 mM) was added to the wells designated as Time 0. After quenching, the reaction mixtures were centrifuged at 3220 g for […]. Following centrifugation, 50 μL of the supernatant was transferred from each well into a 96-well sample plate containing 50 μL of ultra-pure water (Millipore) for LC/MS analysis. The peak area response (PARR) ratio to internal standard of the compounds at 5, 15, 30, and 45 minutes was compared to the PARR at time 0 to determine the percent of test compound remaining at each time point. Half-lives were calculated using Excel software, fitting to a single-phase exponential decay equation.

[2] = Metabolic stability assay in rat liver microsomes (RLM); type: in vitro ADME; details: 1 μM
Protocol: as §1, §2, §3, §4, §5

[3] = molecular target: CYP2C19 (Homo sapiens (Human), UniProt P33261); assay: Cytochrome P450 inhibition in human liver microsomes, CYP2C19
Chain of CYP2C19 (P33261 whole entry): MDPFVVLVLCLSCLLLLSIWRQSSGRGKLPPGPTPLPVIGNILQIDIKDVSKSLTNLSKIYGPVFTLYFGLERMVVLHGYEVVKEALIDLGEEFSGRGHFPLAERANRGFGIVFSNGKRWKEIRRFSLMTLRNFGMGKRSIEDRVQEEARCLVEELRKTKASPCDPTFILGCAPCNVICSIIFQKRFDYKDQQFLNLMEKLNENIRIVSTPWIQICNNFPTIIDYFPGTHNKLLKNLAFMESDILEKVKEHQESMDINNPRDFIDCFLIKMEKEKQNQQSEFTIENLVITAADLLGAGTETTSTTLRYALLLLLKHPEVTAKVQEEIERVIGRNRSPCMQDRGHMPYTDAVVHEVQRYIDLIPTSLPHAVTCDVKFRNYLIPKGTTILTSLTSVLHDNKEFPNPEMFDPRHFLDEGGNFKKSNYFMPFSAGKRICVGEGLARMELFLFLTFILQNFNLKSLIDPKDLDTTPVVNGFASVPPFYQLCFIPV

[4] = molecular target: CYP2C9 (Homo sapiens (Human), UniProt P11712); assay: Cytochrome P450 inhibition in human liver microsomes, CYP2C9
Chain of CYP2C9 (P11712 whole entry): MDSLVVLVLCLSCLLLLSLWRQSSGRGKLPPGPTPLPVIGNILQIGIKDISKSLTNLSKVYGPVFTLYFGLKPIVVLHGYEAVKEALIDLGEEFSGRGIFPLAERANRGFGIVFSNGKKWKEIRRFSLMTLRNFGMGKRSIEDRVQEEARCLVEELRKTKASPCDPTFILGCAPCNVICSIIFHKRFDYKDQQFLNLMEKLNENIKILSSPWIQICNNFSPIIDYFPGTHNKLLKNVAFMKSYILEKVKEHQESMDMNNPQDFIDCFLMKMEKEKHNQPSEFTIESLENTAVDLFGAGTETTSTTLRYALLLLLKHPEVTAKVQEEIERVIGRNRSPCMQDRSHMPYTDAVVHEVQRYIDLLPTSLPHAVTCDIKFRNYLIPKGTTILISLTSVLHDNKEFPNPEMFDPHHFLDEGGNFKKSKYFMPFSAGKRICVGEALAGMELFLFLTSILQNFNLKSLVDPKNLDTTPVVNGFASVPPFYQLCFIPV

[5] = Human plasma stability; type: in vitro ADME; details: plasma
Protocol: Protocol 1: Studies were carried out in human plasma. All plasma was obtained from Bioreclamation and collected on sodium heparin. Plasma was adjusted to pH 7.4. A DMSO stock was first prepared for the test compound. An aliquot of the DMSO solution was dosed into 1 mL of plasma, which had been pre-warmed to 37° C., at a final test compound concentration of 1 μM. The vials were kept in a benchtop Thermomixer® for the duration of the experiment. Aliquots (100 μL) were taken at each time point (0, 15, 30, 60, and 120 minutes) and added to 96-well plates which had been pre-filled with 300 μL of acetonitrile. Samples were stored at 4° C. until the end of the experiment. After the final time point was sampled, the plate was mixed and then centrifuged at 3,000 rpm for 10 minutes. Aliquots of the supernatant were removed, diluted 1:1 into distilled water, and analyzed by LC-MS/MS. The peak area response ratio to internal standard (PARR) of the compound at 15, 30, 60 and 120 minutes was compared to the PARR at time 0 to determine the percent of test compound remaining at each time point. Half-lives were calculated using GraphPad software, fitting to a single-phase exponential decay equation.
Protocol 2: Studies were carried out in plasma. Plasma was prepared under approval of IRB and IACUC on sodium heparin. The pH of plasma was monitored and used within the range of pH 7.4 to pH 8.0. DMSO stocks were prepared for the test compounds. Aliquots of the DMSO solutions were diluted to 0.05 mM by 0.05 mM Sodium phosphate buffer with 0.5% BSA. Then 10 μL of 0.05 mM solutions were dosed into 90 μL of plasma in duplicates (n=2), which had been pre-warmed to 37° C., at a final test compound concentration of 5 μM. The plates were kept in a 37° C. water bath for the duration of the experiment. At each time point (0, 5, 15, 30, 45, 60, and 120 minutes), 400 μL of acetonitrile was added into corresponding wells. After the final time point was sampled, the plates were shaken at the vibrator (IKA, MTS 2/4) for 10 min (600 rpm/min) and then centrifuged at 5594 g for 15 min (Thermo Multifuge×3R). Aliquots of the supernatant were removed, diluted 1:1 into distilled water, and analyzed by LC-MS/MS. The peak area response ratio to internal standard (PARR) of the compounds at 5, 15, 30, 45, 60, and 120 minutes was compared to the PARR at time 0 to determine the percent of test compound remaining at each time point. Half-lives were calculated using Excel software, fitting to a single-phase exponential decay equation.

[6] = molecular target: T1, rat brain nicotinic receptor (α7 NAChR) (Rattus norvegicus (Rat), UniProt Q05941); type: binding
T1 sequence (Q05941 23-502 limits assumed): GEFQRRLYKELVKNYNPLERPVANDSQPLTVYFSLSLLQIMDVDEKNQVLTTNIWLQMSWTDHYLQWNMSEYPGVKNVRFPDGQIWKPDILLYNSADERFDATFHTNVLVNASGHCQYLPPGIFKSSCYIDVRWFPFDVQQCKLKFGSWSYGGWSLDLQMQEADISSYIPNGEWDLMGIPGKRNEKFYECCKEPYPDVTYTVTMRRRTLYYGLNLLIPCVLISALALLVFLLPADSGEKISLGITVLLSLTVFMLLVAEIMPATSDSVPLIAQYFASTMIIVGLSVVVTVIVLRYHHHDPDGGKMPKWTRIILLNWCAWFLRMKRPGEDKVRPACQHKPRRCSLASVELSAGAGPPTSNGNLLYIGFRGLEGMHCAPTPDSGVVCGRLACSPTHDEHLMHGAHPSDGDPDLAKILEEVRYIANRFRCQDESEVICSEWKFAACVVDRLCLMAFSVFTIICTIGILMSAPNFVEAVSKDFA

[7] = molecular target: CYP1A2 (Homo sapiens (Human), UniProt P05177); assay: Cytochrome P450 inhibition in human liver microsomes, CYP1A2
Chain of CYP1A2 (P05177 whole entry): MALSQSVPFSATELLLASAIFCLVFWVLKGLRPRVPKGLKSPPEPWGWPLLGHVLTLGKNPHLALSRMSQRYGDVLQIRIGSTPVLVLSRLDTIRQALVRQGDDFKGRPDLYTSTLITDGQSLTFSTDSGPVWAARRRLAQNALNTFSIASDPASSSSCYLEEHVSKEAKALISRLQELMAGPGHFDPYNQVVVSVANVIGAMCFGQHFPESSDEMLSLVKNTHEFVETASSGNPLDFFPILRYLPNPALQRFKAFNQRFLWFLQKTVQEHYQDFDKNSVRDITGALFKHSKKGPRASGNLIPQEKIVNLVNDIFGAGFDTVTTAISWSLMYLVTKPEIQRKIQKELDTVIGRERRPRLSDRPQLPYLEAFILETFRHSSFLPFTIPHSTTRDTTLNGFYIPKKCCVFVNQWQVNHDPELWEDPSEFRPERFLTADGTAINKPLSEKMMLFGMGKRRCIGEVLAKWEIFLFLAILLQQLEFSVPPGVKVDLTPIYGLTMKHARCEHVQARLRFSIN

[8] = molecular target: CYP3A4 (Homo sapiens (Human), UniProt P08684); assay: Cytochrome P450 inhibition in human liver microsomes, CYP3A4
Chain of CYP3A4 (P08684 whole entry): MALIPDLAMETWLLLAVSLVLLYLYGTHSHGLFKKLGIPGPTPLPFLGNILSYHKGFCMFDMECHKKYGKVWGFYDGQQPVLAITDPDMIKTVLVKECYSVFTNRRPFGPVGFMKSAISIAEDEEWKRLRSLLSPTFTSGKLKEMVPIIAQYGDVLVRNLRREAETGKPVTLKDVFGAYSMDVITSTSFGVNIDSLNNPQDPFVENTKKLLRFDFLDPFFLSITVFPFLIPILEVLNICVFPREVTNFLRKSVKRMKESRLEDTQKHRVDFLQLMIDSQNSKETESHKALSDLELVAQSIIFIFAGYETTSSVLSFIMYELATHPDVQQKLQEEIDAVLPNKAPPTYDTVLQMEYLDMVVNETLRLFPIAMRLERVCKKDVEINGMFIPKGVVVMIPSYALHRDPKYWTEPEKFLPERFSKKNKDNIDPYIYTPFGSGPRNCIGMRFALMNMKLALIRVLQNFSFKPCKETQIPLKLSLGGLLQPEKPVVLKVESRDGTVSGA

[9] = molecular target: T1, rat brain nicotinic receptor (α7 NAChR); type: binding; details: Protocol No. 2; [3H] α-Bungarotoxin 0.4 nM, rat brain P2 membrane
[10] = read-out: 2C19 IC50, Protocol 2
[11] = read-out: 2C19 IC50, Protocol 1
[12] = read-out: 3A4 IC50 (Midazolam), substrate midazolam, Protocol 1
[13] = read-out: 3A4 IC50 (Testosterone), substrate testosterone, Protocol 1
[14] = Protocol No. 1, human liver microsomes
[15] = Protocol No. 1, rat liver microsomes

| Compound | HLM ([1]; human, microsomes, pH 7.4) | RLM ([2]; rat, microsomes, pH 7.4) | IC50 [3, 10] | IC50 ([4]; read-out: 2C9 IC50, Protocol 2) | % Remaining @ 2 h ([5]; human, 2 h, 1 μM, pH 7.4) | half-life at 1 μM ([5]; human, pH 7.4) | IC50 [6] | Ki [6] | IC50 ([7]; read-out: 1A2 IC50, Protocol 2) | HLM ([1]; human, microsomes) | RLM ([2]; rat, microsomes) | IC50 [3, 11] | IC50 ([4]; read-out: 2C9 IC50, Protocol 1) | % Remaining @ 2 h ([5]; human, 2 h, 5 μM) | IC50 ([7]; read-out: 1A2 IC50, Protocol 1) | IC50 [8, 12] | IC50 [8, 13] | HLM [1, 14] | RLM [2, 15] | % Remaining @ 2 h ([5]; Protocol No. 2, 5 μM, 37° C.) | other results |
| --- | --- | --- | --- | --- | --- | --- | --- | --- | --- | --- | --- | --- | --- | --- | --- | --- | --- | --- | --- | --- | --- |
| O=C(OCC12CCN(CC1)CC2)c1c[nH]c2ccc(F)cc12 [Compound 12, quinuclidin-4-ylmethyl 5-fluoro-1H-indole-3-carboxylate] | <0.81648 L/h/kg | 12.524 L/h/kg | > 10 µM | > 10 µM | 31% | 1.23 h | 0.0866 µM | 0.0751 µM | > 10 µM |  |  |  |  |  |  |  |  |  |  |  |  |
| COc1ccc2[nH]cc(C(=O)OCC34CCN(CC3)CC4)c2c1 [Compound 18, quinuclidin-4-ylmethyl 5-methoxy-1H-indole-3-carboxylate] | <0.81648 L/h/kg | 2.87254 L/h/kg | > 10 µM | > 10 µM | 5.8% | 0.487 h | 0.0326 µM | 0.0283 µM | > 10 µM |  |  |  |  |  |  |  |  |  |  |  |  |
| COc1ccc2[nH]cc(C(=O)OCC34CCN(CC3)CC4)c2c1C [Compound 34, quinuclidin-4-ylmethyl 5-methoxy-4-methyl-1H-indole-3-carboxylate] | <0.81648 L/h/kg | 7.5384 L/h/kg | > 10 µM | > 10 µM | 55% | > 2 h | 0.0236 µM | 0.0204 µM | > 10 µM |  |  |  |  |  |  |  |  |  |  |  |  |
| Cc1c(F)ccc2[nH]cc(C(=O)OCC34CCN(CC3)CC4)c12 [Compound 43, quinuclidin-4-ylmethyl 5-fluoro-4-methyl-1H-indole-3-carboxylate] |  |  |  |  |  |  | 0.207 µM | 0.177 µM |  | 0.334 L/h/kg | 28.142 L/h/kg | > 10 µM | > 10 µM | 112.99% | > 10 µM | > 10 µM | > 10 µM |  |  |  | T1/2 ([5]; human): ∞ |
| Cc1cc(F)cc2[nH]cc(C(=O)OCC34CCN(CC3)CC4)c12 [Compound 44, quinuclidin-4-ylmethyl 6-fluoro-4-methyl-1H-indole-3-carboxylate] |  |  |  |  |  |  | 0.48 µM | 0.412 µM |  | 0.21 L/h/kg | 31.881 L/h/kg | > 10 µM | > 10 µM | 95.72% | > 10 µM | > 10 µM | > 10 µM |  |  |  | T1/2 ([5]; human): ∞ |
| Cl.O=C(OCC12CCN(CC1)CC2)c1c[nH]c2cc(Cl)c(F)cc12 [Compound 52, Quinuclidin-4-ylmethyl 6-chloro-5-fluoro-1H-indole-3-carboxylate hydrochloride] |  |  |  |  |  |  |  |  |  |  |  | > 10 µM | > 10 µM |  | > 10 µM | > 10 µM | > 10 µM | 0.2402 L/h/kg | 20.7304 L/h/kg | 85.8425% |  |
| Cc1cc2c(C(=O)OCC34CCN(CC3)CC4)c[nH]c2cc1C#N [Compound 84, quinuclidin-4-ylmethyl 6-cyano-5-methyl-1H-indole-3-carboxylate] |  |  |  |  |  |  |  |  |  |  |  |  |  |  |  |  |  | 0.6144 L/h/kg | 6.9726 L/h/kg | 59.79% | IC50 [9]: 3.34 µM; Ki [9]: 7.18 µM |
| COc1cc(C)cc2[nH]cc(C(=O)OCC34CCN(CC3)CC4)c12 [Compound 85, quinuclidin-4-ylmethyl 4-methoxy-6-methyl-1H-indole-3-carboxylate] |  |  |  |  |  |  |  |  |  | 0.491 L/h/kg | 3.58 L/h/kg |  |  | 27.28% |  |  |  |  |  |  | IC50 [9]: 0.18 µM; Ki [9]: 0.357 µM |
| COc1cc2[nH]cc(C(=O)OCC34CCN(CC3)CC4)c2cc1OC [Compound 87, quinuclidin-4-ylmethyl 5,6-dimethoxy-1H-indole-3-carboxylate] |  |  |  |  |  |  |  |  |  |  |  |  |  |  |  |  |  | 0.03 L/h/kg | 15.463 L/h/kg | 55.42% | IC50 [9]: 1.56 µM; Ki [9]: 2.71 µM |
